Laboratory results as given in patent US20130149701A1, “METHODS OF IDENTIFYING THERAPEUTIC AGENTS FOR TREATING PERSISTER AND BACTERIAL INFECTION” (priority 2010, published 2013).
Values after ≈ are worked out from the molar mass of the structure shown. “Also recorded” adds a separate entry of the source.

Columns and labels:
[1] = target: T1, wild type M. tuberculosis RpsA binding to tmRNA (Mycobacterium tuberculosis, UniProt P9WH43); details: for effect on tmRNA binding to wild type RpsA: FIG. 5A, POA Lanes 2-7, PZA (200 g/ml), INH (1 g/ml)
T1 sequence (P9WH43 1-481): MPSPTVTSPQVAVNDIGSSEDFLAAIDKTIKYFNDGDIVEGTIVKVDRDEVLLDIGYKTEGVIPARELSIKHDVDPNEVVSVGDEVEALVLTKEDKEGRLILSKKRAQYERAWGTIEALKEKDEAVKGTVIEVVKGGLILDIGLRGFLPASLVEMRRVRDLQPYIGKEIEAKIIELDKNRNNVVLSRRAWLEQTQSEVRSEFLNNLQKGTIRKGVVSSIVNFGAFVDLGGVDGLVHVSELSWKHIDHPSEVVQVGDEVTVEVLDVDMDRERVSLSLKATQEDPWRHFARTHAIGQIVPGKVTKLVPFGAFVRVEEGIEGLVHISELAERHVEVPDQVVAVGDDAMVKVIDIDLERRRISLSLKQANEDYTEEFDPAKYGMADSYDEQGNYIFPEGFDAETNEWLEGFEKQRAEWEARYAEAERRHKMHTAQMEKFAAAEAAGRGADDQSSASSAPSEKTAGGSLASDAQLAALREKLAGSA

Endonuclease IV (Rv0670) [2] = target: T2, Endonuclease IV (Rv0670) (Mycobacterium tuberculosis, UniProt P9WQ13); type: biochemical, M. tuberculosis
T2 sequence (P9WQ13 whole entry): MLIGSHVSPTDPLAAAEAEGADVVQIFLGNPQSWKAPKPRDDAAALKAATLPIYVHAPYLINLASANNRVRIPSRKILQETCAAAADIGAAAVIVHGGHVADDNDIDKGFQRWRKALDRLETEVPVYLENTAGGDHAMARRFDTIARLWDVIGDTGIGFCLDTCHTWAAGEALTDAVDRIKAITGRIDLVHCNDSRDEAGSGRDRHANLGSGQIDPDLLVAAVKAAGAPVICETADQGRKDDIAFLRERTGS

Endonuclease IV (Rv0670) [3] = target: T2, Endonuclease IV (Rv0670); assay: Endonuclease IV (Rv0670) activity on oligonucleotides with AP, U or H lesions; type: biochemical, M. tuberculosis; details: oligos with AP, U or H lesion; POA 2, 4, 8, 16, 25 and 34 mM; INH and PZA 25 mM
M. smegmatis RpsA = target: T3, M. smegmatis RpsA (Mycolicibacterium smegmatis, UniProt A0QYY6); type: binding; details: 10 μM RpsA titrated with 100 μM POA
T3 construct: made in house
T3 sequence (A0QYY6 1-479): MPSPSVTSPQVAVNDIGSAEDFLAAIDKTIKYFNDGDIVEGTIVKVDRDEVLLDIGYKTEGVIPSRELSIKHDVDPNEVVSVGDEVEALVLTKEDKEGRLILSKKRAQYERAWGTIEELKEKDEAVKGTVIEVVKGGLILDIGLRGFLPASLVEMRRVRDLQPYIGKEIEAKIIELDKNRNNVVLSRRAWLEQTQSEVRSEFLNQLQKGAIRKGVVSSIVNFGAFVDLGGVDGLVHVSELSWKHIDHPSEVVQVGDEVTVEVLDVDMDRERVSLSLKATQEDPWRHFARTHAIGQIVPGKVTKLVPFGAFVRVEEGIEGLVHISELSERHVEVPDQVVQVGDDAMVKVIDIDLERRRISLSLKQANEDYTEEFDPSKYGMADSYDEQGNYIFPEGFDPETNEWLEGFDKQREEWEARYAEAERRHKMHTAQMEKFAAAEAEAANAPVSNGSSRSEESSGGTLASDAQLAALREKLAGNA

[4] = target: M. tuberculosis ribosome (canonical translation) (Mycobacterium tuberculosis, UniProt P9WH43); type: biochemical
[5] = target: ribosome from M. smegmatis (trans-translation) (Mycolicibacterium smegmatis, UniProt A0QYY6); type: biochemical
[6] = target: M. tuberculosis H37Rv RpsA (WT) (Mycobacterium tuberculosis, UniProt P9WH43); assay: biochemical; type: binding
[7] = test system: M. tuberculosis cell lysates; type: binding
M. tuberculosis = assay: MIC of POA as stated in the text; type: cell-based; details: Mycobacterium tuberculosis, read-out: MIC concentration
[8] = target: ribosome from E. coli (trans-translation) (Escherichia coli, UniProt P0AG67); type: biochemical
[9] = target: M. tuberculosis ribosome, tmRNA and SmpB (trans-translation) (Mycobacterium tuberculosis, UniProt P9WH43); type: biochemical
[10] = test system: Mtb clinical isolate DHM444 / H37Rv; assay: microbe, parasite or virus in culture; type: cell-based, M. tuberculosis; details: Mycobacterium tuberculosis, PZA, sensitive control strain H37Rv

NNC(=O)c1ccncc1 [INH, isoniazid]
effect on tmRNA binding to wild type RpsA [1]: no effect; also recorded: not affected | inhibition of Rv0670 (Endo IV/V) activity (Endonuclease IV (Rv0670) [2]): no inhibition and not | inhibition of Rv0670 endonuclease activity (Endonuclease IV (Rv0670) [3]): did not inhibit

O=C(O)c1cnccn1 [POA, 2-pyrazinecarboxylic acid]
effect on tmRNA binding to wild type RpsA [1]: Concentration-dependent inhibition | inhibition of wild type Mtb RpsA binding to tmRNA ([1]; POA at its MIC concentration of 50 μg/ml): inhibited | binding to M. smegmatis RpsA (ITC) (M. smegmatis RpsA): only weakly; also recorded: only very weakly | effect on conventional protein synthesis (canonical translation) [4]: no effect; also recorded: did not inhibit | effect on translation of the normal DHFR gene [4]: did not affect | inhibition of trans-translation [5]: nor did it inhibit; also recorded: did not inhibit | binding to wild type RpsA (ITC) [6]: bound; also recorded: specifically bind | ΔS (ITC) ([6]; pH 7.4): 27.6 cal·mol^−1·K^−1 | Kd ([6]; read-out: K (binding constant, ITC)): 133 nM | proteins bound to POA identified by Mass Spectrometry ([7]; Examples 8-16, columns with 5-hydroxyl- and 6-hydroxyl-2-pyrazinecarboxylic acid): 9 proteins | proteins that bound to POA ([7]; M. tuberculosis cell lysates, column with 5-hydroxyl-2-pyrazinecarboxylic acid, FIG. 1): several proteins | major POA binding protein ([7]; POA-linked column, mass spectrometry): RpsA | inhibition of Rv0670 (Endo IV/V) activity (Endonuclease IV (Rv0670) [2]): inhibited the activity of Rv0670 (Endo IV/V) completely | reversibility of Endo IV/V inhibition (Endonuclease IV (Rv0670) [2]; dilution or dialysis): irreversibly | MIC (M. tuberculosis): 50 µg/mL | inhibition of trans-translation [8]: nor did it inhibit; also recorded: did not inhibit | concentration inhibiting trans-translation of DHFR with the rare codon cluster [9]: ≥ 25 µg/mL | inhibition of trans-translation of the DHFR product [9]: inhibited | trans-translation product DHFR [9]: still present | inhibition of trans-translation, densitometry of band intensities ([9]; n=5): Concentration-dependent inhibition | inhibition of Rv0670 endonuclease activity (Endonuclease IV (Rv0670) [3]): inhibited Rv0670 activity specifically in a dose dependent manner; also recorded: specific inhibition

NC(=O)c1cnccn1 [PZA, Pyrazinamide]
effect on tmRNA binding to wild type RpsA [1]: no effect; also recorded: not affected | binding to wild type RpsA (ITC) [6]: did not bind | inhibition of Rv0670 (Endo IV/V) activity (Endonuclease IV (Rv0670) [2]): no inhibition and not | MIC [10]: 100 µg/mL (≈ 812 µM) | inhibition of Rv0670 endonuclease activity (Endonuclease IV (Rv0670) [3]): did not inhibit

O=C(O)c1cccnc1 [nicotinic acid]
inhibition of trans-translation [9]: did not inhibit
